Series [1] deals with HT1080 tet-off Flag-XBP-1s cells. Put plainly: Colony formation of HT1080 tet-off Flag-XBP-1s cells under hypoxia. It is filed as cell-based, human. The following applies: 2.5 μM, no dox, hypoxia 48 hours.
Series [2] relates to CHOP/GADD153. Put plainly: CHOP/GADD153 expression in hypoxic HT1080 cells (Western blot). It is filed as cell-based, human. The note with it: 2.5 μM, hypoxia 6-12 hours. The protocol: A. Effect of irestatin 9389 on PERK and ATF6 pathways. HT1080 cells were treated with vehicle alone (lanes 1-4) or 2.5 μM irestatin 9389 (lanes 5-8) and cultured under aerobic conditions for 18 hours (N) or shifted to hypoxia for the indicated times. Protein lysates were analyzed by Western blot analysis using antisera specific for ATF6 (top), CHOP/GADD153 (middle) or actin (bottom). Arrow indicates the cleaved, transcriptionally active form of ATF6. B. Cleavage of caspase-3 in irestatin-treated cells under hypoxia. HT1080 cells were cultured in normoxia (N) or under hypoxia for 36 hours (H 36) in absence or presence of irestatin 9389 (2.5 μM). Arrows indicate proteolytically cleaved caspase-3. C. Colony formation assay. HT1080 cells were treated as in B under normoxia (N) or hypoxia for 48 hours (H 48). Cells were harvested, counted, and allowed to grow under normal culture conditions for 11-12 days. Colonies were visualized with crystal violet staining. D. Quantification of clonogenic survival assay. Values represent the mean+/−SEM from at least 4 independent experiments. E. TUNEL staining of cells treated as in C. F. Quantification of TUNEL-positive cells. Values represent the mean+/−SEM from at least 3 experiments. […] Cells were harvested at the indicated times and counted by hemocytometer. Values represent the mean calculated from triplicate experiments +/−SEM. […]
In general terms: Immunoblotting shows a protein as a band on a membrane.

Series [3] in a line: Toxicity of increasing doses in SCID mice. Type of series: in vivo. How it is done: Female 4-6 week-old SCID (B6.CB17) mice supplied by Stanford University Animal Facility were housed in the same facility (American Association of Laboratory Animal Care-approved) with 12 hour light cycles. Food and water were provided ad libitum. All experiments were approved by the institutional care and use committee. The potential toxicities of irestatin 9389 were examined in SCID mice injected i.p. once daily over 4 consecutive days with increasing doses of irestatin 9389 or vehicle control. […] For xenografts, 2×10^6 HT1080 fibrosarcoma cells were resuspended in 50-75 μl PBS and injected s.c. in the dorsal flanks of host mice. When the implanted tumors reached a mean volume of ˜150 mm^3, mice were randomly assigned into different treatment groups. Mice were dosed by i.p. bolus injection with either vehicle (50% DMSO, 20% cremophor EL, 30% ethanol) or irestatin 9389 (50 mg/kg). Tumors (6-8 per group) were measured every 2-4 days with calipers. Tumor volume was calculated using the formula [(W^2×L) 0.52] where W=width and L=length.

The subject of series [4] is HT1080 cells. Kind of series: Clonogenic survival / colony formation assay, HT1080. Type of series: cell-based, human. The note with it: 2.5 μM. How it is done:
Several of the candidate irestatins were tested in a hypoxia clonogenic survival assay. […] HT1080 fibrosarcoma cells stably were treated with 1 uM of the indicated irestatin or left untreated, and incubated in hypoxia (0.01% oxygen) for 48 hrs at 37° C. Cells were harvested and counted, and allowed to form colonies under normal oxygen tension. Survival rate is expressed as the fraction of colonies formed divided by the total number of cells seeded for each condition. For all experiments, cells were plated in triplicate, and all experiments were repeated at least three times. These experiments were repeated using MiaPaCa2 cells in place of the HT 1080 fibrosarcoma cells.
For hypoxia survival assays, cells were grown in 60 mm dishes until reaching at 50-70% confluence and shifted to hypoxia (0.1% O2) for 48 hrs. Cells were trypsinized, counted using a hemocytometer, and replated in triplicate at 1,000-20,000 cells per plate in normal culture medium. After 10-12 days of growth under normal oxygen conditions, colonies were stained with 0.2% crystal violet in ethanol and counted. Survival values are expressed as the number of colonies divided by the total number of cells seeded for each condition, normalized to the plating efficiency under normal oxygen conditions. […]
A. Effect of irestatin 9389 on PERK and ATF6 pathways. […] D. Quantification of clonogenic survival assay. […]

As to `Cc1csc(NC(=O)CSc2nc3c(c(C(F)(F)F)c2C#N)CCC3)n1` [Compound 9389], the “survival of hypoxic cells expressing Flag-XBP-1s” value in series [1] is given as “minimal effect”. Further, in series [2], the “expression of CHOP/GADD153” value is “increased”. For the same compound, the “toxicity of dosing regimen” value in series [3] (SCID mice, i.p., 50-60 mg/kg) is “without apparent toxicity”. Besides, the “dosing regimen of 50-60 mg/kg relative to LD50” value in series [3] (female, SCID (B6.CB17), mouse, in vivo, 4 days) is 75 % of the LD50 value. In addition, the “colony formation after hypoxia” value in series [4] (hypoxia 48 hours) was “strongly inhibited colony formation”. Further, the “survival of HT1080 cells under normal oxygen” value in series [4] (normal oxygen conditions) was “negligible effect”.

The values above are taken from patent US20090291857A1, “METHODS TO IDENTIFY INHIBITORS OF THE UNFOLDED PROTEIN RESPONSE” (THE BOARD OF TRUSTEES OF THE LELAND STANFORD JUNIOR …, priority 2006, published 2009).
